Experimental data: patent US9493542B2, “Methods of using ERBB2 conjugate peptides” (Augusta University Research Institute, Inc., priority 2013, dated 2016)
Values belong to the molecule of their own block, whether it stands above or below them.

Columns and labels:
HSP90 = HSP90 inhibition by 17-AAG: ErbB2 and Erbin levels and ErbB2 complex; assay type: cell-based
Source text: Erbin regulation of ErbB2 stability was investigated. […] Intriguingly, the effect of 17-AAG could not be blocked by Erbin overexpression (data not shown), indicating Erbin acts upstream or at level of HSP90. ErbB2, HSP90, and Erbin can form a ternary complex necessary for ErbB2 stability. HSP90 as well as Erbin was detectable in the complex of ErbB2 and Erbin interacted HSP90 (data not shown). […] Conversely, Erbin knockdown inhibited the HSP90-ErbB2 interaction (data not shown).

Erbin-ErbB2 interaction = biological target: T1, Erbin-ErbB2 interaction (Homo sapiens, UniProt Q96RT1); experiment: Co-immunoprecipitation of Flag-ErbB2 with Myc-Erbin from lysates incubated with peptide; assay type: binding; details: in vitro; lysates with Flag-ErbB2 or Myc-Erbin, anti-Myc precipitation; compared to control peptide
T1 construct: HEK293 cells were transfected with Flag-ErbB2 alone or together with full length Erbin; expressed in transfected cells; host or cells: Transfected cells
T1 sequence (Q96RT1 whole entry): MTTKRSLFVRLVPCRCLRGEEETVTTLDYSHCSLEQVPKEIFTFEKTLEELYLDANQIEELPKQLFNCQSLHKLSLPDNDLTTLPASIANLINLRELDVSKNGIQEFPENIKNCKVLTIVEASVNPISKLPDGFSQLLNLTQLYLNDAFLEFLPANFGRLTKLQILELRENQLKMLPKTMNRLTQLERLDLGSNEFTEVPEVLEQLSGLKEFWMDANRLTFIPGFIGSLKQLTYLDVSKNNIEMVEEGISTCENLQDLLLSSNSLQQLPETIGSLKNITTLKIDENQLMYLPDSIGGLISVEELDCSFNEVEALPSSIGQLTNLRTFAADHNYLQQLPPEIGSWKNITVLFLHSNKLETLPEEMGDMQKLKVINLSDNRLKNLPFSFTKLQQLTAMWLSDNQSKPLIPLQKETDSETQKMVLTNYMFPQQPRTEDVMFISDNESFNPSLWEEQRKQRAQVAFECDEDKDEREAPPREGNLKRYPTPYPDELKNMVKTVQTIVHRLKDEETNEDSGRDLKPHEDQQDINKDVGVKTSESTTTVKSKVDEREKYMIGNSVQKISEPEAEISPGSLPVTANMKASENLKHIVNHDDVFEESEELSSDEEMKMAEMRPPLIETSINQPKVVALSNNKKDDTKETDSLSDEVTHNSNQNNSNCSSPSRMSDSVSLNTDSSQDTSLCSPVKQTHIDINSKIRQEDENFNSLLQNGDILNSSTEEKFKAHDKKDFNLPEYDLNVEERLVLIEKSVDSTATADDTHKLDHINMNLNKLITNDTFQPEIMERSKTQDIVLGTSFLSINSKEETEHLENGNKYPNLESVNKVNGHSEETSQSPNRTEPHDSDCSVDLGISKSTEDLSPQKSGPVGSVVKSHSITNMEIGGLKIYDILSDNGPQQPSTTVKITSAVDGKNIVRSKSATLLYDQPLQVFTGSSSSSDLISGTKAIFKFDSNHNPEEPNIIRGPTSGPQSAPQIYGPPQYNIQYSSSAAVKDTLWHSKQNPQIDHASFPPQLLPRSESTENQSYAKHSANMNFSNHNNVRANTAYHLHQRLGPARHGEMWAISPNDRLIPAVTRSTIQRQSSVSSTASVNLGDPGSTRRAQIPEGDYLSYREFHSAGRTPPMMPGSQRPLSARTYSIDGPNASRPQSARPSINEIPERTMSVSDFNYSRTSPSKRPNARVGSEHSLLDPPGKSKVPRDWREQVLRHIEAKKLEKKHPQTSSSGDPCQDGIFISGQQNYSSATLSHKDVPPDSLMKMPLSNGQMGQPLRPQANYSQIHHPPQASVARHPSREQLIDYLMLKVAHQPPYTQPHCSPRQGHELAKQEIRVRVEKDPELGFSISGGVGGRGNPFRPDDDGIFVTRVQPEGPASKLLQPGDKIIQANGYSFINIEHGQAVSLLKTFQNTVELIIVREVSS
Source text: FIGS. 5A-5H show the requirement of the Erbin-ErbB2 interaction for ErbB2 stabilization and autophosphorylation and ErbB2-dependent proliferation of breast cancer cells. (A)-(B) Quantitative analysis of pErbB2 and ErbB2 levels in western blots showing decreased ErbB2 expression and autophosphorylation by Erbin-PDZ domain. HEK293 cells were transfected with Flag-ErbB2 with increasing doses of Myc-Erbin-PDZ. Cell lysates were blotted with antibodies against ErbB2, pErbB2 and Myc. (C) Quantitative analysis of western blot data showing the disruption of the Erbin-ErbB2 interaction by B2tail. Lysates of transfected cells expressing Flag-ErbB2 or Myc-Erbin were incubated with control peptide (Ctrl) or B2tail. The Erbin complex was precipitated using anti-Myc antibody and probed for ErbB2. n=3, *P<0.05, compared to Ctrl. […] Cells were treated with 20 μM TAT-Ctrl or TAT-B2tail peptide for 24 hours and analyzed by MTS assay. […]
For immunoprecipitation, cells were lysed in lysis buffer (50 mM Tris-HCl, pH 7.4, 150 mM NaCl, 1% NP-40, 0.5% Triton-X-100, 1 mM PMSF, 1 mM EDTA, 5 mM NaF, 2 mM Na3VO4, and protease inhibitor cocktails). […] Immunoreactive bands were visualized using enhanced chemiluminescence (Pierce), scanned with an Epson 1680 scanner, and analyzed with Image J. […]

BT474 cells = experiment: MTS proliferation assay, BT474 cells; assay type: cell-based, human; details: 20 μM peptide, 24 hours
Source text: (§1) FIGS. 5A-5H show the requirement of the Erbin-ErbB2 interaction for ErbB2 stabilization and autophosphorylation and ErbB2-dependent proliferation of breast cancer cells. (A)-(B) Quantitative analysis of pErbB2 and ErbB2 levels in western blots showing decreased ErbB2 expression and autophosphorylation by Erbin-PDZ domain. HEK293 cells were transfected with Flag-ErbB2 with increasing doses of Myc-Erbin-PDZ. Cell lysates were blotted with antibodies against ErbB2, pErbB2 and Myc. (C) Quantitative analysis of western blot data showing the disruption of the Erbin-ErbB2 interaction by B2tail. Lysates of transfected cells expressing Flag-ErbB2 or Myc-Erbin were incubated with control peptide (Ctrl) or B2tail. The Erbin complex was precipitated using anti-Myc antibody and probed for ErbB2. n=3, *P<0.05, compared to Ctrl. […] SKBR3 cells were incubated with 20 μM TAT-Ctrl or TAT-B2tail, for 1 hour prior to analysis of ErbB2 stability. n=3, *P<0.05, **P<0.01, compared to TAT-Ctrl. […] Cells were treated with 20 μM TAT-Ctrl or TAT-B2tail peptide for 24 hours and analyzed by MTS assay. […] (F) PDZ deletion inhibited tumorigenesis in MMTV-neu mice on incipient congenic FVB background. […]
(§2) Cell proliferation was measured by MTS assay, as described previously (Zhang, S., et al., Nature medicine, 17, 461-469, 2011). […] Optical density was measured at wavelength of 490 nm.

ErbB2 [1] = experiment: ErbB2 stability and pErbB2 in SKBR3 cells after cycloheximide (Western blot); assay type: cell-based; design: dose or concentration left out as unconfirmed; details: TAT-B2tail for 1 hour prior to CHX, compared to TAT-Ctrl
[2] = test system: Human breast BT474 cancer cells; experiment: BT474 breast tumor growth in fat pads of nude mice, intratumoral peptide injection; assay type: in vivo; details: 25 μl 5 mM peptide injected into tumors twice a week, one month, versus TAT-Ctrl
Method: FIG. 7 is a microscopy image of a breast cancer tumor treated with Tat-ErbB2tail. TAT-ErbB2tail peptide inhibits breast tumor growth in nude mice. Human breast BT474 cancer cells (100 μl, 3.0×10^5 cells in 50% Matri-gel) were injected into fat pads of both sides of female mice. Resulting tumors were injected 2 weeks later with control (TAT-ctrl, left) or B2tail (TAT-B2tail, right) peptide (25 u.l, 5 mM), twice a week. Shown were representative images before injection (A, A′) and one month after injection (B, B′).
The results identify the ErbB2-Erbin interaction as a therapeutic target for fighting ErbB2-positive breast cancers. To test this, B2tail was tested for the ability to inhibit tumor growth in mice. Human breast BT474 cancer cells (100 ul, 3.0×10^5 cells in 50% Matri-gel) were injected into fat pads of both sides of virgin, female mice. Resulting tumors were injected 2 weeks later with control (TAT-Ctrl) or B2tail (TAT-B2tail) peptide (25 μl, 5 mM), twice a week[[.]].

SKBR3 cells = experiment: MTS proliferation assay, SKBR3 cells; assay type: cell-based; details: 20 μM peptide, 24 hours
Source text: as §1, §2

ErbB2 [3] = biological target: T2, ErbB2 (Homo sapiens, UniProt P04626); experiment: Coexpression of Erbin PDZ domain with Flag-ErbB2 in HEK293 cells (Western blot); assay type: cell-based; details: Flag-ErbB2 with increasing doses of Myc-Erbin-PDZ
T2 construct: expressed in transfected cells; host or cells: HEK293
Source text: as §1, with “background. Erbin^ΔC/ΔC mice were backcrossed for 5 generations with FVB wild types and then crossed with FVB-congenic MMTV-neu.” for “background.”

[4] = 17-AAG treatment (data not shown)

Molecule: C=CCNC1=C2C[C@@H](C)C[C@H](OC)[C@H](O)[C@@H](C)/C=C(\C)[C@H](OC(N)=O)[C@@H](OC)/C=C\C=C(/C)C(=O)NC(=CC1=O)C2=O [17-AAG]
ErbB2 degradation (HSP90; [4]): resulted in ErbB2 degradation
Erbin levels (HSP90; [4]): no effect
ErbB2 level after brief treatment (HSP90; 17-AAG, 1 hour): without altering ErbB2 level
amount of Erbin in the ErbB2 complex (HSP90; 17-AAG, 1 hour): reduced

Molecule: PTAENPEYLGLDVPV [B2tail]
disruption of the Erbin-ErbB2 interaction (Erbin-ErbB2 interaction): able to disrupt the Erbin-ErbB2 interaction

Molecule: YGRKKRRQRRR-G-PTAENPEYLGLDVPV [TAT-B2tail]
decrease of proliferation (BT474 cells): ~35%
ErbB2 reduction (stability) after CHX (ErbB2 [1]): ErbB2 reduction was faster
pErbB2 levels (ErbB2 [1]): pErbB2 levels were reduced
size of breast tumors [2]: appeared to decrease
decrease of proliferation (SKBR3 cells): about 40%

ErbB2 phosphorylation (pErbB2) (ErbB2 [3]): reduced
levels of ErbB2 (ErbB2 [3]): reduced
B1: PDZ domain of Erbin: Erbin PDZ domain, starts at amino acid 1318 of Erbin, expressed as Myc-tagged construct in HEK293 cells (protein)
chain: AKQEIRVRVEKDPELGFSISGGVGGRGNPFRPDDDGIFVTRVQPEGPASKLLQPGDKIIQANGYSFINIEHGQAVSLLKTFQNTVELIIVREV
modifications: Myc tag; PDZ domain
notes: Erbin PDZ domain, starts at amino acid 1318 of Erbin, expressed as Myc-tagged construct in HEK293 cells
